From US4477670A, “4-Aryloxy-1,2,3,4-tetrahydroisoquinolines” (Hoechst-Roussel Pharmaceuticals Inc., priority 1982, dated 1984)
Where a name gives a salt, the structure may show the parent alone. Read-outs that look alike come from different tables or passages of the source.

Experiments:
[1] = system: phenyl-para-quinone induced writhing; test: phenyl-para-quinone writhing assay in mice (analgesia); assay type: in vivo; details: subcutaneous
Source text: The compounds of the invention are primarily useful as analgesic and anticonvulsant agents. […] Exptl. Biol. Med., 95, 729 (1953)]. Listed below in Table III is the analgesic effect of some of the compounds of the invention, expressed as percent inhibition of phenyl-para-quinone induced writhing.

[2] = system: supra maximal electroshock (extensor tonus); test: supra maximal electroshock assay (anticonvulsant); assay type: in vivo, male mice (Charles River, CD-1); details: Mus musculus, ip, read-out: % Inhibition (anticonvulsant effect)
Protocol: The compounds of the present invention are also useful as anticonvulsant agents for mammals as evidenced by the supra maximal electroshock assay of Woodbury, L. A. and Davenport, U. D. in Arch. Int. Pharmacodynam, Vol. 92 (1952) at pages 97-107.
In this method, groups of male mice are used (Charles River, CD-1), 18-30 grams. Drugs are prepared using distilled water and if insoluble, a surfactant is added. Control animals receive vehicle. Drugs are routinely administered intraperitoneally. The route of administration may be varied (orally, subcutaneously). The dosage volume is 10 ml/kg.
The animal's eyes are placed across the output terminals of an A.C. shocker that delivers 205 volts rms for 300 milliseconds. Electrode paste coats the animal's eyes at the point of contact with the terminals.
Protection is expressed as normalized percent inhibition relative to vehicle control.
A time response is carried out using 6 animals per group. Animals are tested at 30, 60 and 120 minutes post-drug. Additional time periods are tested if indicated by previous tests.
Listed below in Table II is the anticonvulsant effect of some of the compounds of the invention expressed as percent inhibition.

[3] = diuretic activity in rats, drug to urea ratio; assay type: in vivo, female Wistar rats; details: oral, urine 0-5 hours, vs urea 1000 mg/kg
Protocol: Selected compounds of the present invention are useful as diuretics. The diuretic activity of the compounds is measured in the following manner. Groups of female Wistar rats (150-200 grams) are used and they are food deprived 16 hours prior to testing. Drugs are prepared in 1% saline and administered in a dosage volume of 15 ml/kg orally. After dosing each animal is placed in an individual metabolic cage. Water is permitted ad libitum. Urine is collected from 0-5 hours after dosing. […] The individual urine samples are analyzed for sodium and/or potassium and chloride. Sodium and potassium values are typically determined using a flame photometer. Chloride determinations are typically made by a chloride analyzer. Sodium, potassium and chloride values are expressed as the mean milliequivalents (mEq)/kg/5 hrs. Diuresis is expressed as the mean milliliters (ml)/kg/5 hrs. The mean values obtained for sodium, potassium, chloride and diuresis are expressed in a ratio to the sodium, potassium, chloride and diuresis values obtained for the urea treated group. This ratio is called the "drug to urea ratio." A drug to urea ratio greater than or equal to one for diuresis and/or sodium is indicative of diuretic activity. The diuretic effect of some of the compounds of the invention, expressed as the ratio of (a) the mean values obtained for diuresis (urine volume) of the compound treated group to the urea treated group and (b) the mean values obtained for sodium of the compound treated group to the urea treated group, are given in Table I.

[4] = system: 5-HTP activity (continuous forelimb clonus); test: L-5-hydroxytryptophan (5 HTP) potentiation in rats; assay type: in vivo, male Wistar rats; details: Rattus norvegicus, ip
Protocol: Groups of six male Wistar rats (150-200 grams) are used in this test procedure. Four hours prior to testing pargyline HCl is prepared and administered by subcutaneous injection at 75 mg/kg in 1% saline and at a dosage volume of 1.25 ml/kg. Thirty minutes before testing, drugs are prepared using distilled water and, if insoluble, a suitable surfactant is added. Control groups receive vehicle. Drugs are routinely administered intraperitoneally (i.p.) at a dosage volume of 10 ml.kg. L-5-Hydroxytryptophan is prepared at 1.0 mg/kg in distilled water and is administered i.p. in volumes proportional to 10 ml/kg. Drugs are administered in a randomized manner and 5-minute post 5-HTP treatment the animals are observed for 15 minutes. […] Potentiation is expressed as normalized percent potentiation relative to vehicle control. When a compound is observed to potentiate 5-HTP activity, a dose range using ten animals per group is run in the same manner. An effective dose (ED) is determined by probit analysis.

[5] = system: ptosis of tetrabenazine-induced depression; test: inhibition of tetrabenazine-induced depression (ptosis) in mice; assay type: in vivo; details: intraperitoneal
[6] = intraperitoneal, probit analysis, read-out: ED50 (5-HTP potentiation)

1,2,3,4-tetrahydro-4-(p-trifluoromethylphenyl)isoquinoline hydrochloride
% Inhibition of phenyl-para-quinone induced writhing ([1]; 25.0 mg/kg): 51%

FC(F)(F)c1cccc(OC2CNCc3ccccc32)c1 (stereo not drawn) [1,2,3,4-Tetrahydro-4-(m-trifluoromethylphenoxy)isoquinoline maleate]
inhibition in vivo at 21 mg/kg ([2]; intraperitoneal, 21.0 mg/kg): 50%

FC(F)(F)c1ccc(OC2CNCc3ccccc32)cc1 (stereo not drawn) [1,2,3,4-Tetrahydro-4-(p-trifluoromethylphenoxy)isoquinoline hydrochloride]
inhibition in vivo at 35 mg/kg ([2]; intraperitoneal, 35.0 mg/kg): 50%

CN(C)CCN1Cc2ccccc2C(Oc2ccc(C(F)(F)F)cc2)C1 (stereo not drawn) [2-(2-N,N--dimethylaminoethyl)-1,2,3,4-tetrahydro-4-(p-trifluoromethylphenoxy)isoquinoline]
Diuresis Drug to Urea Ratio (Vol.) ([3]; 25 mg/kg): 1.1
Sodium Drug to Urea Ratio ([3]; 25 mg/kg): 1.4

CCN(CC)CCN1Cc2ccccc2C(Oc2ccc(C(F)(F)F)cc2)C1 (stereo not drawn) [2-(2-N,N-Diethylaminoethyl)-4-(p-trifluoromethylphenoxy)-1,2,3,4-tetrahydroisoquinoline dioxalate]
% Inhibition of phenyl-para-quinone induced writhing ([1]; 21.8 mg/kg): 50%
Diuresis Drug to Urea Ratio (Vol.) ([3]; 25 mg/kg): 1.4
Sodium Drug to Urea Ratio ([3]; 25 mg/kg): 1.0
inhibition in vivo at 14.8 mg/kg ([2]; intraperitoneal, 14.8 mg/kg): 50%

CN(C)CCN1Cc2ccccc2C(Oc2ccc(C(F)(F)F)cc2)C1 (stereo not drawn) [2-(2-N,N-Dimethylaminoethyl)-4-(p-trifluoromethylphenoxy)-1,2,3,4-tetrahydroisoquinoline dihydrochloride]
% Inhibition of phenyl-para-quinone induced writhing ([1]; 14.4 mg/kg): 50%
inhibition in vivo at 10.3 mg/kg ([2]; intraperitoneal, 10.3 mg/kg): 50%

CN(C)CCCN1Cc2ccccc2C(Oc2cccc(C(F)(F)F)c2)C1.O=C(O)/C=C\C(=O)O.O=C(O)/C=C\C(=O)O (stereo not drawn) [2-(3-Dimethylaminopropyl)-1,2,3,4-tetrahydro-4-(m-trifluoromethylphenoxy)isoquinoline dimaleate]
% Inhibition of phenyl-para-quinone induced writhing ([1]; 25.0 mg/kg): 53%
inhibition in vivo at 50 mg/kg ([2]; intraperitoneal): 100%

CN(C)CCCN1Cc2ccccc2C(Oc2ccc(C(F)(F)F)cc2)C1 (stereo not drawn) [2-(3-Dimethylaminopropyl)-1,2,3,4-tetrahydro-4-(p-trifluoromethylphenoxy)isoquinoline dihydrochloride]
inhibition in vivo at 14.4 mg/kg ([2]; intraperitoneal, 14.4 mg/kg): 50%

CN(C)CCCN1Cc2ccccc2C(Oc2ccc([N+](=O)[O-])cc2)C1 (stereo not drawn) [2-(3-N,N-dimethylaminopropyl)-4-(p-nitrophenoxy)-1,2,3,4-tetrahydroisoquinoline dihydrochloride]
% Inhibition of phenyl-para-quinone induced writhing ([1]; 14.7 mg/kg): 50%

FC(F)(F)c1ccc(OC2CN(CCCN3CCCCC3)Cc3ccccc32)cc1.O=C(O)C(=O)O.O=C(O)C(=O)O (stereo not drawn) [2-(3-Piperidinopropyl)-1,2,3,4-tetrahydro-4-(p-trifluoromethylphenoxy)isoquinoline dioxalate]
% Inhibition of phenyl-para-quinone induced writhing ([1]; 15.4 mg/kg): 50%
Diuresis Drug to Urea Ratio (Vol.) ([3]; 10 mg/kg): 1.6
Sodium Drug to Urea Ratio ([3]; 10 mg/kg): 2.2

CN1Cc2ccccc2C(Oc2cccc(C(F)(F)F)c2)C1.O=C(O)/C=C\C(=O)O (stereo not drawn) [2-Methyl-1,2,3,4-tetrahydro-4-(m-trifluoromethylphenoxy)isoquinoline maleate]
ED50 [4, 6]: 7.8 mg/kg
inhibition of the ptosis of tetrabenazine-induced depression ([5]; 20 mg/kg): 50%
inhibition in vivo at 50 mg/kg ([2]; intraperitoneal): 67%

CN1Cc2ccccc2C(Oc2ccc([N+](=O)[O-])cc2)C1 (stereo not drawn) [2-Methyl-4-(p-nitrophenoxy)-1,2,3,4-tetrahydroisoquinoline]
ED50 [4, 6]: 4.5 mg/kg
inhibition of the ptosis of tetrabenazine-induced depression ([5]; 20 mg/kg): 30%

Clc1ccc(OC2CNCc3ccccc32)cc1 (stereo not drawn) [4-(p-Chlorophenoxy)-1,2,3,4-tetrahydroisoquinoline hydrochloride]
inhibition in vivo at 23.4 mg/kg ([2]; intraperitoneal, 23.4 mg/kg): 50%

CN(C)CCCN1Cc2ccccc2C(Oc2ccc(Cl)cc2)C1 (stereo not drawn) [4-(p-Chlorophenoxy)-2-(3-dimethylaminopropyl)-1,2,3,4-tetrahydroisoquinoline dimaleate]
inhibition in vivo at 50 mg/kg ([2]; intraperitoneal): 100%

CN1Cc2ccccc2C(Oc2ccc(C#N)cc2)C1 (stereo not drawn) [4-(p-Cyanophenoxy)-2-methyl-1,2,3,4-tetrahydroisoquinoline]
Diuresis Drug to Urea Ratio (Vol.) ([3]; 50 mg/kg): 1.1
Sodium Drug to Urea Ratio ([3]; 50 mg/kg): 1.2

O=C(O)/C=C\C(=O)O.O=[N+]([O-])c1ccc(OC2CNCc3ccccc32)cc1 (stereo not drawn) [4-(p-Nitrophenoxy)-1,2,3,4-tetrahydroisoquinoline maleate]
% Inhibition of phenyl-para-quinone induced writhing ([1]; 25.0 mg/kg): 65%

CN1Cc2ccccc2C(Oc2ccc(C(F)(F)F)cc2)C1 (stereo not drawn) [4-(p-Trifluoromethylphenoxy)-2-methyl-1,2,3,4-tetrahydroisoquinoline oxalate]
inhibition in vivo at 50 mg/kg ([2]; intraperitoneal): 50%

CN(C)CCC=C1c2ccccc2CCc2ccccc21 [Amitriptyline, reference compound]
ED50 ([4]; standard, unit inferred, read-out: ED50 (5-HTP potentiation), standard): 7.1 mg/kg
inhibition of the ptosis of tetrabenazine-induced depression ([5]; 2 mg/kg): 50%

CNC1=Nc2ccc(Cl)cc2C(c2ccccc2)=[N+]([O-])C1 [Chlorodiazepoxide, reference compound]
inhibition in vivo at 8 mg/kg [2]: 50%

CN1C(=O)CN=C(c2ccccc2)c2cc(Cl)ccc21 [Diazepam, reference compound]
inhibition in vivo at 1.7 mg/kg [2]: 50%

C=C(CC)C(=O)c1ccc(OCC(=O)O)c(Cl)c1Cl [ethacrynic acid, reference compound]
Diuresis Drug to Urea Ratio (Vol.) ([3]; 64 mg/kg): 2.5

O=C(O)COc1ccc(C(=O)c2cccs2)c(Cl)c1Cl [tienilic acid, reference compound]
Diuresis Drug to Urea Ratio (Vol.) ([3]; 64 mg/kg): 1.8

Propoxyphene [reference compound]
% Inhibition of phenyl-para-quinone induced writhing ([1]; 3.9 mg/kg): 50%
